Columns and labels:
[1] = test system: subjects with type 2 diabetes; test: Meal challenge test, Amendment 1 (A1): blood glucose, endogenous glucose production, glucose disappearance; type: in vivo, human; conditions: 60 U and 90 U insulin-FDKP groups, 10 U lispro, FIG. 11
Procedure: Following the completion of the meal challenge, the data was analyzed as per the statistical analysis plan. […] The study was amended (A1) and included 12 subjects (10 were reenrolled from the first meal challenge), and only two treatments, which were 10 U lispro and 60 and 90 U TI. The doses were selected based on the relative bioavailability observed following the first meal challenge (OP), where under an assumption of linear kinetics, 10 U lispro and 60 U TI would result in similar exposure. The 90 U dose group was included to assess the effect of the highest dose group of TI studied in Phase 3 trials. Six of the 12 subjects received 60 U TI and the other 6 subjects received 90 U TI. All 12 subjects received 10 U lispro in a crossover fashion. Methods and results below are described in terms of the Original Protocol (OP), which includes the meal challenge in 18 subjects with three treatments (EXUBERA®, lispro and TI) and Amendment 1 (A1), which includes 12 subjects treated with only TI and lispro. […] The subjects were screened and evaluated before, during and after the experiments and their data analyzed as described below. […] Blood glucose concentrations were measured at regular intervals from arterialized venous blood samples. […]

[2] = test system: subjects with type 2 diabetes; test: Meal challenge test, Original Protocol (OP): blood glucose, endogenous glucose production, glucose disappearance; type: in vivo, human; conditions: 45 U insulin-FDKP, 12 U sc lispro, 4 mg EXUBERA, FIG. 6
Procedure: The insulin-FDKP formulation is administered to the subjects by oral inhalation using a MEDTONE® dry powder inhaler (MannKind Corp.). Methods and results below are described in terms of the Original Protocol (OP), which includes the meal challenge in 18 subjects with three treatments (EXUBERA®, lispro and TI) and Amendment 1 (A1), which includes 12 subjects treated with only TI and lispro. […] The subjects were screened and evaluated before, during and after the experiments and their data analyzed as described below. Subjects were selected based on several key inclusion criteria, including, male and female, having ≥18 and ≤70 years of age with clinical diagnosis of type 2 diabetes mellitus for 12 months. […] Blood glucose concentrations were measured at regular intervals from arterialized venous blood samples. […] EGP was determined by measurement of 6,6-^2H2 glucose applying the modified calculations for the non-steady state ([…], and D. T. Stein. Calculating glucose fluxes during meal tolerance test: a new computational approach. Am.J.Physiol Endocrinol.Metab 293 (2):[…]-[…], 2007). C-peptide concentrations were measured pre- and post-dose to assess endogenous insulin secretion. In addition, glucagon and free fatty acid concentrations were also determined.

[3] = human, in vivo
Procedure: The insulin-FDKP formulation is administered to the subjects by oral inhalation using a MEDTONE® dry powder inhaler (MannKind Corp.). Following the completion of the meal challenge, the data was analyzed as per the statistical analysis plan. […] The study was amended (A1) and included 12 subjects (10 were reenrolled from the first meal challenge), and only two treatments, which were 10 U lispro and 60 and 90 U TI. The doses were selected based on the relative bioavailability observed following the first meal challenge (OP), where under an assumption of linear kinetics, 10 U lispro and 60 U TI would result in similar exposure. The 90 U dose group was included to assess the effect of the highest dose group of TI studied in Phase 3 trials. Six of the 12 subjects received 60 U TI and the other 6 subjects received 90 U TI. All 12 subjects received 10 U lispro in a crossover fashion. Methods and results below are described in terms of the Original Protocol (OP), which includes the meal challenge in 18 subjects with three treatments (EXUBERA®, lispro and TI) and Amendment 1 (A1), which includes 12 subjects treated with only TI and lispro. […] The subjects were screened and evaluated before, during and after the experiments and their data analyzed as described below. […]

[4] = test system: subjects with type 1 diabetes; test: 52-week randomized controlled clinical trial, basal insulin + prandial TI Inhalation Powder versus basal insulin + SC insulin aspart; type: in vivo, human; conditions: with basal insulin glargine
Excerpt: This was a prospective, multi-country, multicenter, open label, randomized, controlled clinical trial comparing glycemic control in subjects with type 1 diabetes receiving basal insulin and prandial insulin-FDKP (TI) Inhalation Powder (TI Inhalation Powder group) with subjects receiving basal insulin and SC rapid-acting insulin aspart (comparator group). This study included a 52-week treatment phase and a 4-week follow- up phase. During the 4-week follow-up phase, pulmonary function and select clinical laboratory assessments were scheduled.
The study began with enrollment at Week−3. Subjects received a complete battery of safety and eligibility assessments, including HbA1c and fasting plasma glucose (FPG).
At Week−1, subjects were randomized to one of the following 2 treatments: Basal insulin+prandial TI Inhalation Powder Basal insulin+prandial SC rapid-acting insulin
At Week-1, subjects again completed the first three components of the Insulin Treatment Questionnaire (ITQ) for the purpose of assessing test-retest reliability only). After completing the questionnaire, subjects randomized to the TI Inhalation Powder group were trained on the MEDTONE® Inhaler using TECHNOSPHERE®/insulin (insulin-FDKP) inhalation powder; subjects in the comparator group were trained in the use of the NOVOLOG® pens; all subjects were trained in administration of LANTUS®. Additionally, all subjects were trained on a blood glucose monitoring (HBGM) meter provided at the beginning of the trial and diary and received diabetes education. Any training was repeated at Week 0, if needed.
At the beginning of the treatment phase, subjects had several titration/dose evaluation visits to adjust insulin therapy. Titration visits occurred once a week for the first 4 weeks. During Weeks 4 through 10, there were three telephone “visits” (at Week 6, Week 8, and Week 10) to titrate dose, if necessary. However, dose titration was allowed throughout the trial.
All subjects completed a 7-point blood glucose profile on any 3 days during the week immediately preceding each visit from Week 0 to Week 52. The 7 time points included samples from before breakfast and 2 hours after breakfast, before the mid-day meal and 2 hours after the mid-day meal, before the evening meal and 2 hours after the evening meal and at bedtime (7 time points a day, over 3 days). These blood glucose (BG) values were recorded in the HBGM diary that was collected at clinic visits. […]
A meal challenge test was performed at Week 4 (during dose titration), Week 26, and Week 52. […] Blood glucose (BG) was also measured using HBGM glucose meters to aid the Investigator in treatment decisions and values were obtained at −30, 0, 60, and 120 minutes during the meal challenge. […]

[5] = manufacturer's prescribing information (Mar. 2007 revision); cited from earlier work

insulin lispro
time at which glucose disappearance rate peaked after dosing [1]: about 100 minutes | time at which glucose disappearance rate peaked after dosing [2]: about 120 minutes | median tmax of insulin concentrations [3]: 1.25 h

insulin aspart
mean FPG at the end of the treatment period ([4]; 52 weeks): 161.3 (SD 68.2) mg/dL | average body weight gain over the 52-week treatment period [4]: 1.4 kg | HbA1c at Week 14 ([4]; baseline 8.41 (SD 0.92) TI arm, 8.48 (SD 0.97) insulin aspart arm): 8.07 (SD 1.09) % | mean decrease in fasting plasma glucose (FPG) over the 52-week treatment period ([4]; baseline 187.6 (SD 85.1) TI group, 180.8 (SD 86.9) comparator group): 23.4 (SD 103.1) mg/dL

insulin glargine
period of relatively constant glucose lowering activity [5]: 24 h

— patent publication US11931404B2, “Use of ultrarapid acting insulin” (MannKind Corporation, priority 2014, dated 2024)
